How the values were obtained:
CFTR [1] = assay: Trans-epithelial chloride currents, Ussing chamber assay, T84 cells; format: cell-based
Description: (§1) The correlation between increased levels and increased functional CFTR in the cell membrane was also examined either by measuring chloride permeability using MQAE fluorescence or trans-epithelial chloride currents using the Ussing chamber assay. […] Dox increased total cellular CFTR protein levels by 1.6- to 2-fold in T84 cells, and levels were maximal at approximately 18 to 24 hours after treatment. […] Dox increased the amount of cell surface-detectable CFTR by approximately 2.5- to 3-fold in these cells. Dox treatment of T84 cells was also determined to increase CFTR-associated chloride currents by approximately 2.1-fold as measured by the Using chamber assay and to increase chloride permeability by approximately 2-fold as measured by MQAE fluorescence in these cells.

human ΔF508 CFTR = assay: Chloride currents in MDCK-derived cell line stably transfected with human ΔF508 CFTR cDNA (CMV promoter); format: cell-based; details: MDCK cell line expressing human ΔF508 CFTR; statistically significant
Description: (§2) The ability of Dox to increase functional expression of ΔF508 CFTR in a similar manner was then assessed. In initial experiments, the effects of Dox on ΔF508 CFTR expression were examined in a canine kidney MDCK-derived cell line that had been stably transfected with a human ΔF508 CFTR cDNA construct expressed under the control of a CMV promoter. As controls, the effects of Dox on CFTR expression in the wild-type parental MDCK-C7 cells from which the stable cell line was derived and an MDCK-derived cell line stably transfected with GFP-tagged wild-type human CFTR also under the control of the CMV promoter were examined. Dox had no effect on chloride currents in either controls.

CFTR [2] = assay: Chloride permeability by MQAE fluorescence, T84 cells; format: cell-based
Description: as §1

[3] = test system: MDR4, MDR10, MDR29 and parental MDCK-C7 cells; details: dog, 3 days
Description: Cells were plated in 96 well plates (Fisher, Medford, Mass.) at a density of 1000 cells per well. Twenty-four hours after plating, the cells were dosed with 0-10 μM Dox in serum-free media as described above. The cells were incubated for three days and assayed using the CellTiter 96 AQueous One Solution Reagent (Promega Corp., Madison, Wis.) using the manufacturer's instructions. The data were collected and analyzed using the Softmax software. A cytotoxicity assay was also performed with cisplatin (0-30 μM) as described above.

[4] = test system: GFP-tagged wild-type human CFTR; assay: Chloride currents in MDCK-derived cell line stably transfected with GFP-tagged wild-type human CFTR (control); format: cell-based; details: MDCK cells with GFP-tagged wild-type human CFTR
Description: as §2

GFP-Pgp = details: MDR29 cells
MDCK-C7 cells = assay: Chloride currents in wild-type parental MDCK-C7 cells (control); format: cell-based, canine
Description: as §2

CFTR protein levels = CFTR protein levels by western blotting using anti-CFTR antibodies in T84 cells; format: cell-based
Description: as §1

[5] = test system: wild-type CFTR mRNA expression; assay: CFTR mRNA expression in HT-29 human colon cell line; format: cell-based; details: HT-29 cells
Description: Experiments were performed which identified specific agents that increase functional cell surface expression of the ΔF508 CFTR protein. […] However, a rapid increase in CFTR mRNA to 1.5-fold over controls was seen by 48 hours and remained high through the end of the experiment.

SMILES | increase in CFTR-associated chloride currents (CFTR [1]) | increase in chloride currents (human ΔF508 CFTR) | increase in chloride permeability (CFTR [2]) | EC50 for cytotoxicity (colony formation), MDR cell lines relative to parental cell line [3] | effect on chloride currents [4] | membrane Pgp levels (GFP-Pgp; 24-72 hour period after treatment) | cellular GFP levels (GFP-Pgp; compared with Pgp membrane levels) | effect on chloride currents (MDCK-C7 cells) | mature CFTR protein levels (CFTR protein levels) | effect on CFTR mRNA expression ([5]; between 0 and 36 hours after treatment) | increase in CFTR mRNA over controls ([5]; by 48 hours, remained high through end of experiment) [fold] | CFTR mRNA expression over a 72 hour period ([5]; single non-toxic treatment, over 72 hours)
COc1cccc2c1C(=O)c1c(O)c3c(c(O)c1C2=O)C[C@@](O)(C(=O)CO)C[C@@H]3O[C@H]1C[C@H](N)[C@H](O)[C@H](C)O1 [Dox, doxorubicin] | approximately 2.1 fold | approximately 1.7 fold | approximately 2 fold | 2.5-3.5 fold | no effect | progressive and substantial increase | increased earlier and to a greater extent | no effect | – | – | – | –
CO[C@@]12[C@H](COC(N)=O)C3=C(C(=O)C(C)=C(N)C3=O)N1C[C@@H]1N[C@@H]12 [MMC, mitomycin C] | approximately 1.2 fold | – | – | – | – | – | – | – | significantly increased | Little or no effect | 1.5 | significant increase
